Experimental data as given in patent US7947707B2, “Nitrogenated heterocyclic compound and pharmaceutical composition comprising the same” (Kissei Pharmaceutical Co., Ltd., priority 2005, dated 2011).

Assays:
[1] = biological target: T1, xanthine oxidase (from buttermilk) (Bos taurus, UniProt P80457); assay: Xanthine oxidase inhibitory effect; assay type: biochemical; conditions: 100 μmol/L xanthine, 5 mU/mL enzyme; read-out: X.O. inhibition IC50
T1 construct: xanthine oxidase (from buttermilk; biozyme laboratories); purchased biozyme laboratories; host or cells: buttermilk (natural source)
Procedure: Assay for inhibition of xanthine oxidase was performed in 100 μmol/L substrate concentration (final concentration), 5 mU/mL enzyme concentration (final concentration) and compounds of the present invention as test compounds which were prepared with xanthine oxidase (from buttermilk; biozyme laboratories), xanthine (Sigma) and phosphate-buffered saline (PBS). In addition, all test compounds were frozen for preservation in condition of 20 mmol/L DMSO solution and used for experiments after thawing at need. Method is following: after diluted solution of test compound was added to 90 μL of 11.1 mU/mL enzyme solution, the mixture was incubated for 10 minutes after mixing. To start reaction, 100 μL of 200 μmol/L substrate solution was added to there, 10 minutes later, the reaction was stopped by addition of 500 μL of 0.5 mol/L sulfuric acid, and then absorbance at […] was measured. Final concentration of test compound was a single concentration, 10 μmol/L in single well for initial screening and 6 concentrations, 10, 1 μmol/L, 100, 10, 1 nmol/L, 100 pmol/L in duplicate for assay to calculate 50% inhibitory concentration (IC50) which were used for assay. Percent inhibition was calculated according to the formula described below. Percent inhibition (%)=(A−B)/(A−C)×100
In formula, A means absorbance in wells without test compound, B means absorbance in wells with test compound, C means absorbance in blank wells.
IC50 value was calculated from percent inhibition in each concentration by nonlinear regression method.

[2] = biological target: T2, HEK293 cells forced to express URAT1 (Homo sapiens, UniProt Q96S37); assay: URAT1 inhibitory effect, [8-14C] uric acid uptake; assay type: cell-based; conditions: test compound 100 μmol/L, 20 μmol/L uric acid, 5 minutes uptake
T2 construct: host or cells: HEK293
T2 sequence (Q96S37 1-553): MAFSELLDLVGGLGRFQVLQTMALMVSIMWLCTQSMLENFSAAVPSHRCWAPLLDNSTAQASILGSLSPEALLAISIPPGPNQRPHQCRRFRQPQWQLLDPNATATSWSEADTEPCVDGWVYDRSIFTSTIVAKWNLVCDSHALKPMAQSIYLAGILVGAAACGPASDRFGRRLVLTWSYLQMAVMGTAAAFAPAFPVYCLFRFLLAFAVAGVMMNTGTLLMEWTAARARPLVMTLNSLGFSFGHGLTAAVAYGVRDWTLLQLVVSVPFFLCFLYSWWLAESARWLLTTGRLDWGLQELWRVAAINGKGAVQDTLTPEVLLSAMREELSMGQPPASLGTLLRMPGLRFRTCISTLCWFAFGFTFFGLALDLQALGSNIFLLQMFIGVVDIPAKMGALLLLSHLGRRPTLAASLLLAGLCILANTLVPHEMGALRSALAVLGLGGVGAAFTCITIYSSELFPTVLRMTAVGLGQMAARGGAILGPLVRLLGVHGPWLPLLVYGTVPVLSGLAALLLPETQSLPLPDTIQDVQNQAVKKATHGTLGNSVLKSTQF
Text: DMEM containing 10% FBS (supplemented with 0.05% geneticin, Nissui Pharmaceutical Co., Ltd.), HEK293 cells forced to express URAT1 (HCS (Human cell Systems), (Fuji Biomedix)), HBSS as washing buffer and HBSS substituted with Na-gluconate (NaCl in HBSS was substituted with Na-gluconate) were used for assay. [8-^14C] uric acid (moravek) was used as an uric acid reagent and added to assay buffer at 20 μmol/L as a final concentration. Compounds of the present invention were used as a test compound, 20 mmol/L stock solution of each test compound (DMSO solution) was diluted appropriately, and then the diluted test compound solution was added to assay buffer at 100 μmol/L as a final concentration including 0.5% final concentration of DMSO.
To prepare assay plates, at first, cells on subculture petri dish were peeled off using treatment of 0.05% trypsin-EDTA solution, and then seeded on Biocoat Poly-D-Lysine Cellware 24 well plate (BECTON DICKINSON) at a density of 2×10^5 cells/well and cultured for 2 days.
For the uptake study, at first, culture medium was removed by aspiration and cells were washed twice with HBSS (37° C.), then the buffer was replaced with 1 mL of assay buffer (37° C.). Cells were pre-incubated for 10 minutes. And then, the buffer was removed by aspiration and 0.5 mL of radioisotope ligand solution incubated at 37° C. was added, then cells were incubated for 5 minutes. After uptake, radioisotope solution was removed by aspiration, and immediately cells were washed three times with ice-cold HBSS, followed by resolving by addition of 0.5 mL of 0.5 mol/L NaOH. Cell lysate solution was transferred to a vial or 24 well plate for Betaplate, and mixed with 0.5 mL of liquid scintillator (Optiphase ‘Super Mix’; Perkin Elmer). Radioisotope activity was measured (using Betaplate 1450). As mean count in control solution not including test compound was 100%, percent inhibition was calculated by determining percent decrease in mean count in solution including test compound from mean count in control solution.

[3] = tested on: potassium oxonate induced hyperuricemia; assay: Blood hypouricemic effect, potassium oxonate induced hyperuricemia; assay type: in vivo; conditions: Rattus norvegicus, po, male SD rats, serum 2 hours after administration, read-out: Decrease (%) in UA concentration; for inhibition in vivo at 10 mg/kg: 10 mg/kg orally
Procedure: Effect of compound of the present invention as a test compound was studied on potassium oxonate induced hyperuricemia with male 7-week-old SD rats (Charles River Japan) and potassium oxonate (Aldrich) suspended in 1% gum arabic solution. Test compound was suspended in 0.5% CMC-Na solution, and then administered orally. Dosing was 10 mg/kg or 50 mg/kg. All volume of administered solution was 10 mL/kg. Potassium oxonate 250 mg/kg was administered to dorsal region of rats subcutaneously, 1 hour later each test compound was administered orally. For control group, only 0.5% CMC-Na solution as a vehicle was administrated. At 2 hours after administration of test compounds or vehicle, blood was collected under ether anesthesia, and serum was separated according to general method. Treated number was 5 for each group.
Measurement of concentration of uric acid was conducted with following prepared reagents. The deproteinization reagent was prepared in the following manner; 100 g of sodium tungstate was added to a 2 L flask, and exactly 75 mL of 85% phosphoric acid and 500 mL of water were added to the flask equipped with a reflux condenser, and heated for an hour. After cooling, the resulting faint yellow-green solution was diluted to 1 L exactly. Sodium carbonate-urea reagent was prepared in the following manner; 14 g of anhydrous sodium carbonate and 14 g of urea were dissolved in water and final volume of the solution was adjusted to 100 mL exactly. Phosphotungstic coloring reagent was prepared in 4-fold dilution of deproteinzation reagent described above with water. UA standard solution (10 mg/dL: Kyokuto pharmaceutical industrial CO., LTD) was used as an uric acid standard solution, and then serially diluted uric acid standard solution with purified water was also used for standard curve.
Three hundred μL of serum or standard was added to 2.1 mL of purified water, and then 150 μL of deproteination reagent was also added to the solution, followed by mixing. After incubating for 20 minutes, the mixture was centrifuged at 3000 rpm for 10 minutes. Sodium carbonate-urea reagent (0.5 mL) was added to 1.5 mL of supernatant, and the mixture was incubated for 20 minutes. Next, after addition of 250 μL of coloring reagent, further incubation was carried over 15 minutes. Absorbance at 660 nm was measured, and concentration of uric acid was calculated with standard curve. Percent decrease in concentration of uric acid was calculated by following formula. Percent decrease in concentration of uric acid (%)=(A−B)/A×100
In formula, A means average of concentration of blood uric acid in control group, B means average of concentration of blood uric acid in test compounds-treated group.

T1 sequence (P80457 whole entry): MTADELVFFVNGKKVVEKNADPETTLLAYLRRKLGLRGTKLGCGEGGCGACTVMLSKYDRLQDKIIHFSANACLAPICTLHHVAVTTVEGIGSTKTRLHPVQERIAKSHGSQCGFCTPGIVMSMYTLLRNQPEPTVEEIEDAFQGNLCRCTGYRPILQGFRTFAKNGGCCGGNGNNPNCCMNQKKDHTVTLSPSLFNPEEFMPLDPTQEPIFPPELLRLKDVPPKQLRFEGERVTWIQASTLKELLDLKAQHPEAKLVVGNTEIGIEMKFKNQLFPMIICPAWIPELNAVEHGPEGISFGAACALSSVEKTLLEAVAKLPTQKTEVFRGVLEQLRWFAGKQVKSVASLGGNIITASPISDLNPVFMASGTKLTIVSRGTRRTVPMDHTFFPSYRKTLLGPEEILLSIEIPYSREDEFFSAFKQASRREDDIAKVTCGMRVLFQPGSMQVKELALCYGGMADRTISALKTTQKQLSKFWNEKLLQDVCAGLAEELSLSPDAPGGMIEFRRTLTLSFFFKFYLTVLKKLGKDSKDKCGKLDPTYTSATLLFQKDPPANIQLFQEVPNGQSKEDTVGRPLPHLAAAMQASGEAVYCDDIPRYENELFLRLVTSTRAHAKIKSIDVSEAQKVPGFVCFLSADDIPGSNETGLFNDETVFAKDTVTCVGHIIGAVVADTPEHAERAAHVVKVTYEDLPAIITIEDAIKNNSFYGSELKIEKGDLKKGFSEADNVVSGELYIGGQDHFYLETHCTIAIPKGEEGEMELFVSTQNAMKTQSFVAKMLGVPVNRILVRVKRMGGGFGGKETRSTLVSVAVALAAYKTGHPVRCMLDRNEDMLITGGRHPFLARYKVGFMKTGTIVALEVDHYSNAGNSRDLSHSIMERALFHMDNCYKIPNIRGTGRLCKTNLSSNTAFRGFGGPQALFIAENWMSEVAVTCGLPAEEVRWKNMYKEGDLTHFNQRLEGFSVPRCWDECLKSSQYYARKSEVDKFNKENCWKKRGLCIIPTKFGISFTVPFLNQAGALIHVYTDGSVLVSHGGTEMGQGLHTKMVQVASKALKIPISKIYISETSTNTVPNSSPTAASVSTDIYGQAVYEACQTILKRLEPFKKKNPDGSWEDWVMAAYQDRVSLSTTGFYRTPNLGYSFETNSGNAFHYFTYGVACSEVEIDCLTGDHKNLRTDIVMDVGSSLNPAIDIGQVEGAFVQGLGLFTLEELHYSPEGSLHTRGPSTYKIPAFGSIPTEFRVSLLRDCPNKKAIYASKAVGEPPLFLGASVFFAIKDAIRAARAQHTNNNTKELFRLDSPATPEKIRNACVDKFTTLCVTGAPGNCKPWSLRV

N#Cc1cn(-c2ccc(C(=O)O)cc2)cc1-c1cccs1 [XO-B401]
IC50 [1]: 0.00598 µM
inhibition at 100 µM [2]: 59.5%
inhibition in vivo at 10 mg/kg [3]: 78.8%

Cc1ccsc1-c1cn(-c2ccc(C(=O)O)cc2)cc1C#N [XO-B407]
IC50 [1]: 0.00473 µM
inhibition at 100 µM [2]: 55.5%
inhibition in vivo at 10 mg/kg [3]: 76.9%

N#Cc1cn(-c2ccc(C(=O)O)cc2)cc1-c1ccsc1 [XO-B418]
IC50 [1]: 0.00463 µM
inhibition at 100 µM [2]: 62.6%
inhibition in vivo at 10 mg/kg [3]: 79.1%

N#Cc1cn(-c2ccc(C(=O)O)cc2)cc1-c1ccc2c(c1)OCCO2 [XO-B434]
IC50 [1]: 0.00382 µM
inhibition at 100 µM [2]: 68.8%
inhibition in vivo at 10 mg/kg [3]: 63.2%

Cc1ccc2c(c1)c(C#N)cn2-c1ccc(C(=O)O)cc1 [XO-CH164]
IC50 [1]: 0.0138 µM
inhibition at 100 µM [2]: 92.3%
inhibition in vivo at 50 mg/kg ([3]; 50 mg/kg orally): 51.4%

COc1ccc2c(c1)c(C#N)cn2-c1ccc(C(=O)O)cc1 [XO-CH183]
IC50 [1]: 0.0145 µM
inhibition at 100 µM [2]: 80.6%

N#Cc1cn(-c2ccc(C(=O)O)cc2)c2cc3c(cc12)OCO3 [XO-CH199]
IC50 [1]: 0.0491 µM
inhibition at 100 µM [2]: 91.5%

N#Cc1cn(-c2ccc(C(=O)O)cc2)c2cccc(Cl)c12 [XO-CH201]
IC50 [1]: 0.0505 µM
inhibition at 100 µM [2]: 88.6%

COc1ccc2c(C#N)cn(-c3ccc(C(=O)O)cc3)c2c1 [XO-CH207]
IC50 [1]: 0.0965 µM
inhibition at 100 µM [2]: 93.9%

N#Cc1cn(-c2ccc(C(=O)O)cc2)c2cc(Cl)ccc12 [XO-CH209]
IC50 [1]: 0.0608 µM
inhibition at 100 µM [2]: 97.1%

COc1cccc2c1c(C#N)cn2-c1ccc(C(=O)O)cc1 [XO-CH211]
IC50 [1]: 0.0164 µM
inhibition at 100 µM [2]: 81.1%

N#Cc1cn(-c2ccc(C(=O)O)cc2)c2ncc(Br)cc12 [XO-KT16]
IC50 [1]: 0.0992 µM
inhibition at 100 µM [2]: 92.4%

N#Cc1cn(-c2ccc(C(=O)O)cc2)nc1-c1cccs1 [XO-TT508]
IC50 [1]: 0.00374 µM
inhibition at 100 µM [2]: 67.1%

N#Cc1cn(-c2ccc(C(=O)O)cc2)nc1-c1ccsc1 [XO-TT571]
IC50 [1]: 0.00479 µM
inhibition at 100 µM [2]: 70.8%
inhibition in vivo at 10 mg/kg [3]: 62%
